Assays:
Experiment in all cases: Ki determination, non-radiometric ADP-Glo assay (Proqinase GmbH)
Format in all cases: biochemical
[1] = biological target: T1, PI3K p110α (Homo sapiens, UniProt P42336)
T1 construct: assay run at Proqinase GmbH
Text: (§1) Biochemical activity against class I PI3K isoforms was confirmed by either Ki determination using the non-radiometric ADP-Glo™ assay (Promega, Madison, Wis., USA) at Proqinase GmbH, or IC50 determination using the HTRF biochemical assay at Reaction Biology Corp.

[2] = biological target: T2, PI3K p110β (Homo sapiens, UniProt P42338)
T2 construct: assay run at Proqinase GmbH
Text: as §1

[3] = biological target: T3, PI3K p110γ (Homo sapiens, UniProt P48736)
T3 construct: assay run at Proqinase GmbH
Text: as §1

[4] = biological target: T4, PI3K p110δ (Homo sapiens, UniProt O00329)
T4 construct: assay run at Proqinase GmbH
Text: as §1

T2 sequence (P42338 whole entry): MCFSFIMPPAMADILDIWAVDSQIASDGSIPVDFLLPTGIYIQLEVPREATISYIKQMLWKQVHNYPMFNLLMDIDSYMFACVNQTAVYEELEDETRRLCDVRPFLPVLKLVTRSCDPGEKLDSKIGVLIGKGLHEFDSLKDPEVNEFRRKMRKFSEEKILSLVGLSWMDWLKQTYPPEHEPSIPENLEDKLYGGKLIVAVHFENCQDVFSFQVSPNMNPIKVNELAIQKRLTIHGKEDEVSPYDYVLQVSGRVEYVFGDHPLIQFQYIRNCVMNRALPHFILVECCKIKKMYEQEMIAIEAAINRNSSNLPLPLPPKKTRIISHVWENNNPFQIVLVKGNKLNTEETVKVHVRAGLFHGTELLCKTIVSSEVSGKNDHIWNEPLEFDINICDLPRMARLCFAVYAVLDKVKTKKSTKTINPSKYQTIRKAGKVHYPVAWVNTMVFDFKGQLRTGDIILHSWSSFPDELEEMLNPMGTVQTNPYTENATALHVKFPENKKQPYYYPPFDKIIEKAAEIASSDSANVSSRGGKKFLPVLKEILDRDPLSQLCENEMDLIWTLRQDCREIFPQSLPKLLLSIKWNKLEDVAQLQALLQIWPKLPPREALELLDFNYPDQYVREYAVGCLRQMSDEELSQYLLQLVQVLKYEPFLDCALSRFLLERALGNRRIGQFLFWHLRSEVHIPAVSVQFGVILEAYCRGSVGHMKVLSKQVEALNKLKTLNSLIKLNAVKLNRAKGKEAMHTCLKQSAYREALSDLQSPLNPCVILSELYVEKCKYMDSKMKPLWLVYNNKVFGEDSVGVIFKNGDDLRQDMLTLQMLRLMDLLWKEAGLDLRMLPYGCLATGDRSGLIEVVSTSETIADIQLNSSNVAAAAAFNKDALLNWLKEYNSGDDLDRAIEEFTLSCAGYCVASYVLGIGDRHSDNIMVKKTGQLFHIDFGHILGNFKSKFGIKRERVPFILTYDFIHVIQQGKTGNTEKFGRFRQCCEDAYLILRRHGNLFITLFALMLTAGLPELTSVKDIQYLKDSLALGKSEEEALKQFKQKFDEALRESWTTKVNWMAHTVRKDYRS
T2 sequence (P27986 whole entry partner): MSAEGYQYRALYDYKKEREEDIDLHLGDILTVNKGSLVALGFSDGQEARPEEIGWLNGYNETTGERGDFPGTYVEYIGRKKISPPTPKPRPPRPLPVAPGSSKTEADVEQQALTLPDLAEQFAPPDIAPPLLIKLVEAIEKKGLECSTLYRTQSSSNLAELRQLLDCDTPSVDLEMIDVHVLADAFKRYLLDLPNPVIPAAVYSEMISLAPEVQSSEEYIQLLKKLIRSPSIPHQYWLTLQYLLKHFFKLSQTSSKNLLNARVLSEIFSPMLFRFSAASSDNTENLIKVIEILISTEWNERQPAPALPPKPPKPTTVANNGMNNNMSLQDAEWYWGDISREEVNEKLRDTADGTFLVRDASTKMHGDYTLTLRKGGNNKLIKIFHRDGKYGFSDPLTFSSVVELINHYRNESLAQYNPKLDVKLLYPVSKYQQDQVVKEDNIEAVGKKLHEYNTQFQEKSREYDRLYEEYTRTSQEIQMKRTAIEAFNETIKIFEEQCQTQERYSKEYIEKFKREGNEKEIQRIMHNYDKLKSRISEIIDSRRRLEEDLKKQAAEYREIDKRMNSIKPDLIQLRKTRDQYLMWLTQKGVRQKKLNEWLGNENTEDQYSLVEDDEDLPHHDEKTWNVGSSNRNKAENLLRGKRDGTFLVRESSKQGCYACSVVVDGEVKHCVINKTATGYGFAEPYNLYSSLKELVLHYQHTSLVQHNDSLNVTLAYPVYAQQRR
T3 sequence (P48736 whole entry): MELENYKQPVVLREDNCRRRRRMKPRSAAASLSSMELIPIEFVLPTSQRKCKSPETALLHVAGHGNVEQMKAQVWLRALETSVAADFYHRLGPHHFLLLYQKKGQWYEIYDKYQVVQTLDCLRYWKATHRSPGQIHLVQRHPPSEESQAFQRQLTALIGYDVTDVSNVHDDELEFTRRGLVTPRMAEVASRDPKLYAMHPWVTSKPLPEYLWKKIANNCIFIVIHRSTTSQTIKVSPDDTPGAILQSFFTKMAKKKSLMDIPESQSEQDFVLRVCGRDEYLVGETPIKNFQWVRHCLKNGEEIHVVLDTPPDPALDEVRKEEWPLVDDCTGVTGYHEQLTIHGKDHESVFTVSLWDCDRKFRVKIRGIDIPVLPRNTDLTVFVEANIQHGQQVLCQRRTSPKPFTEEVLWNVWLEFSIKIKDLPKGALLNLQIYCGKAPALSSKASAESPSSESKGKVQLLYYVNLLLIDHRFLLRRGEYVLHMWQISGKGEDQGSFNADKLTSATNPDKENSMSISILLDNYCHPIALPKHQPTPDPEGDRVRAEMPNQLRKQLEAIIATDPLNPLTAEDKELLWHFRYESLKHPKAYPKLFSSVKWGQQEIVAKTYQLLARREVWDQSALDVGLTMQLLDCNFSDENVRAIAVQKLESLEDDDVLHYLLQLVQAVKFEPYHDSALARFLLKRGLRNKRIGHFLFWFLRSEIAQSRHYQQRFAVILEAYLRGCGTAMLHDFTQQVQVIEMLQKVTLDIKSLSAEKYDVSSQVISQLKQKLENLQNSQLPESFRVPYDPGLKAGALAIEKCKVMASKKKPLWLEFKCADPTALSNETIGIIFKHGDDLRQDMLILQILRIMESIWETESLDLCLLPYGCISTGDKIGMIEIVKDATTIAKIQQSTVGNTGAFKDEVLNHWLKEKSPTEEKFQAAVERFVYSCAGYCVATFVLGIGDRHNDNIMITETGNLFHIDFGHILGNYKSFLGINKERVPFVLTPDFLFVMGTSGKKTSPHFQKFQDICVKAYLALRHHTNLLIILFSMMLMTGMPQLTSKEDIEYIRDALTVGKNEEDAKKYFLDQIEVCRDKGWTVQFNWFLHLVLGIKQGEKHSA
T4 sequence (O00329 whole entry): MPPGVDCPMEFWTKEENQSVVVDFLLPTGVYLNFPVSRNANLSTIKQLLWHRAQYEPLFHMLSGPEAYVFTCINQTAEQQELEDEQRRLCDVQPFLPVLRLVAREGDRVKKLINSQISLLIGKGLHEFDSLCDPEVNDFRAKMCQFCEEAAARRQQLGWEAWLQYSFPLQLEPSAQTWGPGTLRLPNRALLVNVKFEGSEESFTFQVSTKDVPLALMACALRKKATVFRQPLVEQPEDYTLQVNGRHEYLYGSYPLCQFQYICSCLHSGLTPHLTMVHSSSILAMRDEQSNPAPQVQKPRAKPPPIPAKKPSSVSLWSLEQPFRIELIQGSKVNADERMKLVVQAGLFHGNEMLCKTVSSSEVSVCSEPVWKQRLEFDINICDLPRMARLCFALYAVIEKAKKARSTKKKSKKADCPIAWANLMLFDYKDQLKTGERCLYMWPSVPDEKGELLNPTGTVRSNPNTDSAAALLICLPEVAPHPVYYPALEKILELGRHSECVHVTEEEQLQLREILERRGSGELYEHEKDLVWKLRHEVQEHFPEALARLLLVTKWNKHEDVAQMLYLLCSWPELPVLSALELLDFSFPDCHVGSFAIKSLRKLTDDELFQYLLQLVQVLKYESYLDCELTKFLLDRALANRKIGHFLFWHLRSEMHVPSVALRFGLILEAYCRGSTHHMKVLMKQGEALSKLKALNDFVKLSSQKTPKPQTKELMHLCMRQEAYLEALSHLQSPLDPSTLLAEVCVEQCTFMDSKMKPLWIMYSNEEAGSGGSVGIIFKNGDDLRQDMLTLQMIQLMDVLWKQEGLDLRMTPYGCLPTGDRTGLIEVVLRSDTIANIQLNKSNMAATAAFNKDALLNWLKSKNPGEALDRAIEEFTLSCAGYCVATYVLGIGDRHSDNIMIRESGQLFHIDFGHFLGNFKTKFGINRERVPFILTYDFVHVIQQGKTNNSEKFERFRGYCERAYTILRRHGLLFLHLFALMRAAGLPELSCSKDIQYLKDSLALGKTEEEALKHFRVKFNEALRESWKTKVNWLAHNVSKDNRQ
T4 sequence (P27986 whole entry partner): as the sequence (P27986 whole entry partner) above
T1 sequence (P42336 whole entry): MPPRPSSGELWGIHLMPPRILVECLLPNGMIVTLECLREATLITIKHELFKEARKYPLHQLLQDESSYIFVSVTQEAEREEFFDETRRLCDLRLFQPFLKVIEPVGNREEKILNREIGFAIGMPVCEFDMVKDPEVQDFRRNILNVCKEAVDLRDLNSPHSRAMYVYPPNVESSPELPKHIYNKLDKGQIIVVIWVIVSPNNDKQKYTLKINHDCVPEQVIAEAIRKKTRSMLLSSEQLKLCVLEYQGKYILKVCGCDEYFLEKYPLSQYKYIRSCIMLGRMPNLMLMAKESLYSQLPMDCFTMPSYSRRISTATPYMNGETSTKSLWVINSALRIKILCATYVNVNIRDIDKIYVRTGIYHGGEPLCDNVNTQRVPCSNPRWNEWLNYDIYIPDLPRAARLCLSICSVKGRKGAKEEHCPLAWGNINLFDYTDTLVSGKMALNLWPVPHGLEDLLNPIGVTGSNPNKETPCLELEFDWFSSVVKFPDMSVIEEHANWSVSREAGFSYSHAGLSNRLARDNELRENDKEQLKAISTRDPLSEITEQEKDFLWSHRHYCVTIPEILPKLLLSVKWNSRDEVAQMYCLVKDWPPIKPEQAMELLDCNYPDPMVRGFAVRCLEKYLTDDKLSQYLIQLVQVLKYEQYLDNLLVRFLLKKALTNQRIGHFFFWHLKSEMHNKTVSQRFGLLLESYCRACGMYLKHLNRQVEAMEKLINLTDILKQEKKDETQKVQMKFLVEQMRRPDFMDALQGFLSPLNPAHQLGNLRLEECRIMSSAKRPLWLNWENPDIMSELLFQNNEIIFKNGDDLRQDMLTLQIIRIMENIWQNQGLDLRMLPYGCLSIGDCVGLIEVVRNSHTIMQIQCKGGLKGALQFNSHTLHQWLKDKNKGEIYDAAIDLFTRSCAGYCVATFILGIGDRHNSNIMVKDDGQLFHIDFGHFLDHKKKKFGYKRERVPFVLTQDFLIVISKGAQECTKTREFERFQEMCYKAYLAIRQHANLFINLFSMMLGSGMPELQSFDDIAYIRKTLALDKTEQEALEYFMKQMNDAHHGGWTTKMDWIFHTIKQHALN
T1 sequence (P27986 whole entry partner): as the sequence (P27986 whole entry partner) above

SMILES: CN(CCS(C)(=O)=O)Cc1cnc2oc3c(N4CCOCC4)nc(-c4cccc5[nH]ccc45)nc3c2c1 [Example C, {[4-(1H-Indol-4-yl)-6-(morpholin-4-yl)-8-oxa-3,5,10-triazatricyclo[7.4.0.0^2,7]trideca-1(13),2(7),3,5,9,11-hexaen-12-yl]methyl}(2-methanesulfonylethyl)methylamine]
- Ki [1]: ≤ 500 nM
- Ki [2]: ≤ 500 nM
- Ki [3]: 1000 to 10000 nM
- Ki [4]: ≤ 500 nM

SMILES: [O-][S+]1CCN(Cc2cnc3oc4c(N5CCOCC5)nc(-c5cc(C(F)(F)F)cc6[nH]ccc56)nc4c3c2)CC1 [Example F]
- Ki [1]: > 10000 nM
- Ki [2]: > 10000 nM
- Ki [3]: > 10000 nM
- Ki [4]: > 10000 nM

SMILES: [O-][S+]1CCN(Cc2cnc3oc4c(N5CCOCC5)nc(-c5c(Cl)ccc6c5CCN6)nc4c3c2)CC1 [Example U, 4-{[4-(5-Chloro-2,3-dihydro-1H-indol-4-yl)-6-(morpholin-4-yl)-8-oxa-3,5,10-triazatricyclo[7.4.0.0^2,7]trideca-1(9),2,4,6,10,12-hexaen-12-yl]methyl}-1λ^4-thiomorpholin-1-one]
- Ki [1]: > 10000 nM
- Ki [2]: 1000 to 10000 nM
- Ki [3]: > 10000 nM
- Ki [4]: ≤ 500 nM

SMILES: [O-][S+]1CCN(Cc2cnc3oc4c(N5CCOCC5)nc(-c5c(OC(F)(F)F)ccc6[nH]ccc56)nc4c3c2)CC1 [Example Z, 4-{[6-(Morpholin-4-yl)-4-[5-(trifluoromethoxy)-1H-indol-4-yl]-8-oxa-3,5,10-triazatricyclo[7.4.0.0^2^,7]trideca-1(9),2,4,6,10,12-hexaen-12-yl]methyl}-1λ^4-thiomorpholin-1-one]
- Ki [1]: ≤ 500 nM
- Ki [2]: ≤ 500 nM
- Ki [3]: 500 to 1000 nM
- Ki [4]: ≤ 500 nM

SMILES: N#Cc1cc(-c2nc(N3CCOCC3)c3oc4ncc(CN5CC[S+]([O-])CC5)cc4c3n2)c2cc[nH]c2c1 [Example R, 4-[6-(morpholin-4-yl)-12-[(1-oxo-1λ^4-thiomorpholin-4-yl)methyl]-8-oxa-3,5,10-triazatricyclo[7.4.0.0^2,^7]trideca-1(13),2(7),3,5,9,11-hexaen-4-yl]-1H-indole-6-carbonitrile]
- Ki [1]: > 10000 nM
- Ki [2]: > 10000 nM
- Ki [3]: > 10000 nM
- Ki [4]: > 10000 nM

SMILES: [O-][S+]1CCN(Cc2cnc3oc4c(N5CCOCC5)nc(-c5c(F)ccc6[nH]ccc56)nc4c3c2)CC1 [Example E]
- Ki [1]: 1000 to 10000 nM
- Ki [2]: ≤ 500 nM
- Ki [3]: 1000 to 10000 nM
- Ki [4]: ≤ 500 nM

SMILES: C[C@H](c1cnc2oc3c(N4CCOCC4)nc(-c4cccc5[nH]ccc45)nc3c2c1)N1CCS(=O)(=O)CC1 [Example H, 4-[(1R)-1-[4-(1H-Indol-4-yl)-6-(morpholin-4-yl)-8-oxa-3,5,10-triazatricyclo[7.4.0.0^2,7]trideca-1(13),2,4,6,9,11-hexaen-12-yl]ethyl]-1λ^6-thiomorpholine-1,1-dione]
- Ki [1]: 500 to 1000 nM
- Ki [2]: ≤ 500 nM
- Ki [3]: 1000 to 10000 nM
- Ki [4]: ≤ 500 nM

SMILES: [O-][S+]1CC2CC1CN2Cc1cnc2oc3c(N4CCOCC4)nc(-c4cccc5[nH]ccc45)nc3c2c1 [Example L, (1S,2R,4S)-5-{([4-(1H-Indol-4-yl)-6-(morpholin-4-yl)-8-oxa-3,5,10-triazatricyclo[7.4.0.0^2,7]trideca-1(13),2,4,6,9,11-hexaen-12-yl]methyl}-2-thia-5-azabicyclo[2.2.1]heptan-2-ium-2-olate]
- Ki [1]: 500 to 1000 nM
- Ki [2]: ≤ 500 nM
- Ki [3]: 1000 to 10000 nM
- Ki [4]: ≤ 500 nM

SMILES: N#Cc1c[nH]c2cccc(-c3nc(N4CCOCC4)c4oc5ncc(CN6CC[S+]([O-])CC6)cc5c4n3)c12 [Example AN, 4-[6-(morpholin-4-yl)-12-[(1-oxo-1λ^4-thiomorpholin-4-yl)methyl]-8-oxa-3,5,10-triazatricyclo[7.4.0.0^2,^7]trideca-1(13),2(7),3,5,9,11-hexaen-4-yl]-1H-indole-3-carbonitrile]
- Ki [1]: > 10000 nM
- Ki [2]: > 10000 nM
- Ki [3]: > 10000 nM
- Ki [4]: > 10000 nM

— patent publication US10442815B2, “Tricyclic heterocyclic compounds as phosphoinositide 3-kinase inhibitors” (Karus Therapeutics Limited, priority 2015, dated 2019)
